The values that follow come from ChEMBL document CHEMBL1130408, “Repromicin derivatives with potent antibacterial activity against Pasteurella multocida” (1997).

≈ marks a conversion by molar mass, not a printed value. Where only a bound is given, the exact number is not on record here.

One assay is filed under the species Mus musculus. Briefly: Protected dose which protects 50% of challenged mice from death owing to the Pasteurella multocida (59A006) infection. Conditions: read-out: PD50. It is filed as functional.
In another assay the test system is Pasteurella multocida. Briefly: Minimum inhibitory concentration required to inhibit Pasteurella multocida 59A006 in vitro. In kind it is functional.

As to `CC[C@H]1OC(=O)CC(O)[C@H](C)[C@@H](O[C@@H]2O[C@H](C)C[C@H](N(C)C)[C@H]2O)[C@@H](CCN2CCOCC2)C[C@@H](C)C(=O)/C=C/C(C)=C/[C@@H]1C` (stereo partly specified), the ED50 in the assay listed under Mus musculus is over 150 mg/kg. The same compound displayed an MIC in the assay with Pasteurella multocida of 0.78 µg/mL (≈ 1.22 µM). For `CC[C@H]1OC(=O)CC(O)[C@H](C)[C@@H](O[C@@H]2O[C@H](C)C[C@H](N(C)C)[C@H]2O)[C@@H](CCN2CCC2)C[C@@H](C)C(=O)/C=C/C(C)=C/[C@@H]1C` (stereo partly specified), in that order: 46 mg/kg and 0.2 µg/mL (≈ 0.33 µM). For `CC[C@H]1OC(=O)CC(O)[C@H](C)[C@@H](O[C@@H]2O[C@H](C)[C@@H](O)[C@H](N(C)C)[C@H]2O)[C@@H](CCN(C)CCCN(C)C)C[C@@H](C)C(=O)/C=C/C(C)=C/[C@@H]1CO[C@@H]1O[C@H](C)[C@@H](O)[C@@H](OC)[C@H]1OC` (stereo partly specified), in that order: 41 mg/kg and 3.13 µg/mL (≈ 3.59 µM). The matching figures for `CC[C@H]1OC(=O)CC(O)[C@H](C)[C@@H](O[C@@H]2O[C@H](C)C[C@H](N(C)C)[C@H]2O)[C@@H](CCN2CC(C)CC(C)C2)C[C@@H](C)C(=O)/C=C/[C@]2(C)O[C@H]2[C@@H]1C` (stereo partly specified): over 150 mg/kg and 0.2 µg/mL (≈ 0.295 µM).

Turning to `CC[C@H]1OC(=O)CC(O)[C@H](C)[C@@H](O[C@@H]2O[C@H](C)[C@@H](O)[C@H](N(C)C)[C@H]2O)[C@@H](CCN(C)CCN(C)C)C[C@@H](C)C(=O)/C=C/C(C)=C/[C@@H]1CO[C@@H]1O[C@H](C)[C@@H](O)[C@@H](OC)[C@H]1OC` (stereo partly specified), in the assay listed under Mus musculus, the ED50 is over 50 mg/kg. In addition, the MIC in the assay with Pasteurella multocida stood at 3.13 µg/mL (≈ 3.65 µM). For `CC[C@H]1OC(=O)CC(O)[C@H](C)[C@@H](O[C@@H]2O[C@H](C)C[C@H](N(C)C)[C@H]2O)[C@@H](CCN(CC)CC)C[C@@H](C)C(=O)/C=C/C(C)=C/[C@@H]1C` (stereo partly specified), in the assay filed under Mus musculus, the ED50 amounted to 141 mg/kg. Moreover, in the assay with Pasteurella multocida, the MIC worked out at 0.39 µg/mL (≈ 0.626 µM). For the compound `CC[C@H]1OC(=O)CC(O)[C@H](C)[C@@H](O[C@@H]2O[C@H](C)C[C@H](N(C)C)[C@H]2O)[C@@H](CCNCCCN(C)C)C[C@@H](C)C(=O)/C=C/C(C)=C/[C@@H]1C` (stereo partly specified), the ED50 in the assay filed under Mus musculus turned out to be 5 mg/kg. This compound showed an MIC against Pasteurella multocida of 0.39 µg/mL (≈ 0.598 µM). As to `CC[C@H]1OC(=O)CC(O)[C@H](C)[C@@H](O[C@@H]2O[C@H](C)C[C@H](N(C)C)[C@H]2O)[C@@H](CCNCCO)C[C@@H](C)C(=O)/C=C/C(C)=C/[C@@H]1C` (stereo partly specified), the ED50 in the assay filed under Mus musculus came out at 10 mg/kg. In the assay with Pasteurella multocida, this compound yielded an MIC of 0.2 µg/mL (≈ 0.327 µM). `CC[C@H]1OC(=O)CC(O)[C@H](C)[C@@H](O[C@@H]2O[C@H](C)[C@@H](O)[C@H](N(C)C)[C@H]2O)[C@@H](CCNCCCN(C)C)C[C@@H](C)C(=O)/C=C/C(C)=C/[C@@H]1CO[C@@H]1O[C@H](C)[C@@H](O)[C@@H](OC)[C@H]1OC` (stereo partly specified): the minimal inhibitory concentration (MIC) in the assay on Pasteurella multocida is 12.5 µg/mL (≈ 14.6 µM). Regarding `CC[C@H]1OC(=O)CC(O)[C@H](C)[C@@H](O[C@@H]2O[C@H](C)C[C@H](N(C)C)[C@H]2O)[C@@H](CCNC(CO)CO)C[C@@H](C)C(=O)/C=C/C(C)=C/[C@@H]1C` (stereo partly specified), in the assay filed under Mus musculus, the ED50 was 31 mg/kg. For the same compound, the MIC in the assay with Pasteurella multocida came out at 0.39 µg/mL (≈ 0.609 µM). The matching figures for `CC[C@H]1OC(=O)CC(O)[C@H](C)[C@@H](O[C@@H]2O[C@H](C)C[C@H](N(C)C)[C@H]2O)[C@@H](CCN(C)CCO)C[C@@H](C)C(=O)/C=C/C(C)=C/[C@@H]1C` (stereo partly specified): 45 mg/kg and 0.2 µg/mL (≈ 0.32 µM).

In the case of `CC[C@H]1OC(=O)CC(O)[C@H](C)[C@@H](O[C@@H]2O[C@H](C)C[C@H](N(C)C)[C@H]2O)[C@@H](CCNC2C(O)CCCC2O)C[C@@H](C)C(=O)/C=C/C(C)=C/[C@@H]1C` (stereo partly specified), the ED50 in the assay listed under Mus musculus stood at 11 mg/kg. Besides, the lowest concentration to inhibit growth against Pasteurella multocida (MIC) was 0.2 µg/mL (≈ 0.294 µM). In the assay on Pasteurella multocida, `CC[C@H]1OC(=O)CC(O)[C@H](C)[C@@H](O[C@@H]2O[C@H](C)[C@@H](O)[C@H](N(C)C)[C@H]2O)[C@@H](CCN(C)CCCNC)C[C@@H](C)C(=O)/C=C/C(C)=C/[C@@H]1CO[C@@H]1O[C@H](C)[C@@H](O)[C@@H](OC)[C@H]1OC` (stereo partly specified) registered an MIC of 25 µg/mL (≈ 29.1 µM).

In the case of `CCNCC[C@H]1C[C@@H](C)C(=O)/C=C/C(C)=C/[C@H](C)[C@@H](CC)OC(=O)CC(O)[C@H](C)[C@H]1O[C@@H]1O[C@H](C)C[C@H](N(C)C)[C@H]1O` (stereo partly specified), the ED50 in the assay filed under Mus musculus is over 150 mg/kg. The same compound registered an MIC in the assay on Pasteurella multocida of 0.2 µg/mL (≈ 0.336 µM).

What is called MIC is the smallest concentration in the dilution series that meets the test's criterion for growth inhibition. A low value points to inhibition by little substance.
